Experimental: The suspensions were stirred for 24 hours at 25° C. The undissolved residues were removed by filtration through a […] filter. The solutions were diluted with a 1:1 water/ethanol mixture and concentrations of the guest molecules were determined spectrophotometrically using an HP 8542 diode array spectrophotometer. The solubility of the guest molecules was represented as a function of the CD derivative concentration. The apparent binding constants were calculated from the slope of the solubility isotherm. The guest molecules evaluated were water-immiscible pharmaceuticals, fragrances, and other organic molecules.

| Kc(HBen-β-CD), apparent binding constant in guest molecule/CD derivative complex [M⁻¹] | Kc(HP-β-CD), apparent binding constant in guest molecule/CD derivative complex [M⁻¹] | Molecule | Binding constants compared with HP-β-CD, in words |
| --- | --- | --- | --- |
| 136 | 62 | COc1ccc(Cl)cc1C(=O)NCCc1ccc(S(=O)(=O)NC(=O)NC2CCCCC2)cc1 [Glibenclamide, glibenclamide] |  |
| 520 | 376 | CC(C)Cc1ccc(C(C)C(=O)O)cc1 (centres unmarked) [Ibuprofen, ibuprofen] |  |
| 183 |  | O=C(O)c1ccccc1O [Salicylic Acid, salicylic acid] |  |

The next lines start with the molecule.

| Molecule | Kc(HBen-β-CD), apparent binding constant in guest molecule/CD derivative complex [M⁻¹] | Kc(HP-β-CD), apparent binding constant in guest molecule/CD derivative complex [M⁻¹] | Binding constants compared with HP-β-CD, in words |
| --- | --- | --- | --- |
| Cc1ccccc1 [Toluene, toluene] | 1111 | 773 |  |
| hydroxybutenyl-β-cyclodextrin [HBen-β-CD] |  |  | higher binding constants than did HP-β-CD |

From patent US6479467B1, “Cyclodextrin ethers” (Eastman Chemical Company, priority 1999, dated 2002)
